≈ marks a conversion by molar mass, not a printed value.
Columns and labels:
Cytomegalovirus [1] = test: Minimum Inhibitory Concentration (MIC) tested for activity against Cytomegalovirus (CMV) using AD169 strain; type: functional; details: Human betaherpesvirus 5
[2] = Minimum cytotoxic concentration to reduce the HEL cell proliferation by 50%; type: cell-based; details: human, HEL cells; read-out: MCC
[3] = Cytotoxic concentration required to reduce CEM cell viability by 50%; type: cell-based; details: human, CCRF-CEM (CEM) cells
[4] = Cytotoxic concentration required to cause microscopically detectable alteration of normal cell morphology of HeLa cells; type: cell-based; details: human, read-out: CC50
Cytomegalovirus [5] = test: Minimum Inhibitory Concentration (MIC) tested for activity against Cytomegalovirus (CMV) using Davis strain; type: functional; details: Human betaherpesvirus 5
Human alphaherpesvirus 3 [6] = test: Minimum Inhibitory Concentration (MIC) for activity against Varicella-Zoster Virus(VZV) using OKA (TK+) strain; type: functional
[7] = Cytotoxic concentration required to cause microscopically detectable alteration of normal cell morphology of E6SM cells; type: cell-based; details: human, read-out: CC50
Human alphaherpesvirus 3 [8] = test: Minimum Inhibitory Concentration (MIC) tested for activity against Varicella-Zoster Virus(VZV) using YS(TK+) strain.; type: functional
[9] = Cytotoxic concentration required to cause microscopically detectable alteration of normal cell morphology of Vero cells; type: cell-based; details: chlorocebus sabaeus, read-out: CC50
Human alphaherpesvirus 3 [10] = test: Minimum Inhibitory Concentration (MIC) tested for activity against Varicella-Zoster Virus(VZV) using 07/1 (TK-) strain.; type: functional
Human alphaherpesvirus 3 [11] = test: Minimum Inhibition Concentration (MIC) for activity against Varicella-Zoster Virus(VZV) using YS/R (TK-) strain.; type: functional
Human alphaherpesvirus 3 [12] = test: Minimum Inhibition Concentration (MIC) for activity against Varicella-Zoster Virus(VZV) using YS(TK+) strain.; type: functional
Human alphaherpesvirus 3 [13] = test: Minimum Inhibitory Concentration (MIC) tested for activity against Varicella-Zoster Virus(VZV) using YS/R (TK-) strain.; type: functional
[14] = Minimum cytotoxic concentration required to reduce human embryonic lung (HEL) cell proliferation by 50%; type: cell-based; details: human embryonic lung (HEL) cells, read-out: MCC
Cytomegalovirus [15] = test: Minimum Inhibition Concentration (MIC) for activity against Cytomegalovirus (CMV) using Davis strain; type: functional; details: Human betaherpesvirus 5
Cytomegalovirus [16] = test: Minimum Inhibition Concentration( MIC) for activity against Cytomegalovirus (CMV) using AD169 strain; type: functional; details: Human betaherpesvirus 5
Human alphaherpesvirus 3 [17] = test: Minimum Inhibition Concentration (MIC) for activity against Varicella-Zoster Virus(VZV) using OKA (TK+) strain; type: functional
Human alphaherpesvirus 3 [18] = test: Minimum Inhibition Concentration( MIC) for activity against Varicella-Zoster Virus(VZV) using YS(TK+) strain.; type: functional
Human alphaherpesvirus 3 [19] = test: Minimum Inhibition Concentration (MIC) for activity against Varicella-Zoster Virus(VZV) using 07/1 (TK-) strain.; type: functional

Row | Structure (SMILES) | MIC (Cytomegalovirus [1]) [µg/mL] | CC50 [2] [µg/mL] | CC50 [3] [µg/mL] | MCC [4] [µg/mL] | MIC (Cytomegalovirus [5]) [µg/mL] | MIC (Human alphaherpesvirus 3 [6]) [µg/mL] | MCC [7] [µg/mL] | MIC (Human alphaherpesvirus 3 [8]) [µg/mL] | MCC [9] [µg/mL] | MIC (Human alphaherpesvirus 3 [10]) [µg/mL] | MIC (Human alphaherpesvirus 3 [11]) [µg/mL] | MIC (Human alphaherpesvirus 3 [12]) [µg/mL] | MIC (Human alphaherpesvirus 3 [13]) [µg/mL] | CC50 [14] [µg/mL] | MIC (Cytomegalovirus [15]) [µg/mL] | MIC (Cytomegalovirus [16]) [µg/mL] | MIC (Human alphaherpesvirus 3 [17]) [µg/mL] | MIC (Human alphaherpesvirus 3 [18]) [µg/mL] | MIC (Human alphaherpesvirus 3 [19]) [µg/mL]
1 | Cc1cccc2ncc(CSCCO)n12 | > 10 | 40 (≈ 180 µM) | 22 (≈ 99 µM) | 100 | > 10 | > 10 | 200 | > 10 | 200 | > 10 | > 10 |  |  |  |  |  |  |  | 
2 | Cc1cccn2c(CSCCO)cnc12 | 7 (≈ 31.5 µM) | 85 (≈ 382 µM) | 9.5 (≈ 42.7 µM) | 40 | 6 (≈ 27 µM) | 25 (≈ 112 µM) | 400 | 10 (≈ 45 µM) | 400 | 15 (≈ 67.5 µM) | > 10 |  |  |  |  |  |  |  | 
3 | COC(=O)c1nc2ccccn2c1CSCCO | > 50 |  | 87 (≈ 327 µM) | > 200 | > 50 | > 25 | > 400 |  | > 400 |  |  | > 25 | > 25 | > 100 |  |  |  |  | 
4 | Cc1ccn2c(CSCC(C)O)cnc2c1 (stereo not given) | > 50 | > 100 | 60 (≈ 254 µM) | 400 |  | > 100 | > 400 |  | > 400 |  |  | > 100 | 100 (≈ 423 µM) |  | > 50 |  |  |  | 
5 | Cc1cccn2c(CSCc3ccccc3)cnc12 |  | 8 (≈ 29.8 µM) | 0.5 (≈ 1.86 µM) | 4 |  |  | 40 |  | 100 |  | > 1 |  |  |  | 0.2 (≈ 0.745 µM) | 0.2 (≈ 0.745 µM) | 0.9 (≈ 3.35 µM) | 0.3 (≈ 1.12 µM) | 0.4 (≈ 1.49 µM)
6 | Cc1cccc2ncc(CSCC(O)CO)n12 (stereo not given) | > 10 | 75 (≈ 297 µM) | 45 (≈ 178 µM) | > 100 | 25 (≈ 99.1 µM) | > 40 | 400 | > 40 | 400 | > 40 |  |  | > 40 |  |  |  |  |  | 
7 | CCOC(=O)CSCc1cnc2cc(C)ccn12 | 25 (≈ 94.6 µM) | 80 (≈ 303 µM) | 37 (≈ 140 µM) | > 100 | 23 (≈ 87 µM) | > 40 | 200 | > 40 | > 200 | > 40 |  |  | > 40 |  |  |  |  |  | 
8 | CC(O)CSCc1cnc2ncccn12 (stereo not given) | > 40 | > 100 | > 100 | 400 | > 40 | > 40 | > 400 | > 40 | > 400 | > 40 | > 40 |  |  |  |  |  |  |  | 
9 | Nc1nc2c(ncn2COCCO)c(=O)[nH]1 [ACYCLOVIR] |  | > 100 |  |  |  |  | > 400 |  |  |  |  |  |  |  |  |  |  |  | 
10 | O=c1[nH]c(=O)n([C@H]2C[C@H](O)[C@@H](CO)O2)cc1/C=C/Br [BRIVUDINE] |  | > 50 |  | > 400 |  |  | > 400 |  | > 400 |  | > 20 | 0.002 (≈ 0.006 µM) |  |  |  |  | 0.0009 (≈ 0.0027 µM) |  | > 50
11 | Nc1ccn(C[C@@H](CO)OCP(=O)(O)O)c(=O)n1.O.O [CIDOFOVIR] | 0.05 | > 100 |  |  | 0.05 |  |  |  |  |  | 0.004 | 0.033 |  |  |  |  | 0.04 |  | 
12 | O=c1[nH]cnc2c1ncn2[C@H]1CC[C@@H](CO)O1 [DIDANOSINE] |  |  | > 100 |  |  |  |  |  |  |  |  |  |  |  |  |  |  |  | 
13 | Nc1nc2c(ncn2COC(CO)CO)c(=O)[nH]1 [GANCICLOVIR] | 0.5 (≈ 1.96 µM) |  |  |  | 0.5 (≈ 1.96 µM) |  | > 100 |  |  |  |  |  |  |  |  |  |  |  | 
14 | NC(=O)c1ncn([C@@H]2O[C@H](CO)[C@@H](O)[C@H]2O)n1 [RIBAVIRIN] |  |  |  | > 200 |  |  | > 400 |  | > 400 |  |  |  |  |  |  |  |  |  | 
15 | Cc1cn([C@H]2C[C@H](N=[N+]=[N-])[C@@H](CO)O2)c(=O)[nH]c1=O [ZIDOVUDINE] |  |  | > 125 |  |  |  |  |  |  |  |  |  |  |  |  |  |  |  | 

From ChEMBL document CHEMBL1129240, “Synthesis of acyclo-C-nucleosides in the imidazo[1,2-a]pyridine and pyrimidine series as antiviral agents” (J Med Chem, 1996)
